These results are taken from ChEMBL document CHEMBL4651402, “Screening of ~5500 FDA-approved drugs and clinical candidates for anti-SARS-CoV-2 activity” (2021).

In this test the test system is SARS-CoV-2. The experiment in a line: microbe, parasite or virus in culture. The conditions noted are these: Severe acute respiratory syndrome coronavirus 2, Vero C1008, 48 h.

`C[C@H](Cc1ccc2c(c1)OC(C(=O)O)(C(=O)O)O2)NC[C@H](O)c1cccc(Cl)c1`: the IC50 is > 20 µM. In addition, where the note is “read-out: pIC50 (converted)”, the IC50 was > 20 µM.
In the case of `O=C(O)C1CC(O)CN1` (stereo not given), the IC50 was > 20 µM. The IC50 (read-out: pIC50 (converted)) is > 20 µM.
`CC(=O)OCC(=O)[C@H]1CC[C@H]2[C@@H]3CC=C4C[C@@H](O)CC[C@]4(C)[C@H]3CC[C@]12C`: the IC50 is > 20 µM. Moreover, under “read-out: pIC50 (converted)”, the IC50 is > 20 µM.
Regarding `CC(C)(C)CC(C)(C)c1ccc(OCOCCOCCO)c(Cc2cc(C(C)(C)CC(C)(C)C)cc(Cc3cc(C(C)(C)CC(C)(C)C)ccc3OCOCCOCCO)c2OCOCCOCCO)c1`, the IC50 was > 20 µM. In addition, the IC50 (read-out: pIC50 (converted)) is > 20 µM.
For the compound `Clc1ccc(CO[C@H](Cn2ccnc2)c2ccc(Cl)cc2Cl)c(Cl)c1`, the IC50 was > 20 µM. For the same compound, the IC50 (read-out: pIC50 (converted)) is > 20 µM.
In the case of `CCOc1ncc(S(=O)(=O)N2CCN(CC)CC2)cc1-c1nc2c(CC)n(CCOC)nc2c(=O)[nH]1`, the IC50 is > 20 µM. For the setting “read-out: pIC50 (converted)”, the IC50 was > 20 µM.
Take `CCC(C)C(=O)OC1CC2(C)C(c3ccoc3)OC(=O)CC23OC2(C)OC34C(OC(=O)C(C)C)C3(O)C(OC(=O)C5(C)OC5C)C5(C)CC3(O)C(C)(C5CC(=O)OC)C14O2` (stereo not given): the IC50 is > 20 µM. The IC50 (read-out: pIC50 (converted)) was > 20 µM.
For `O=C1Nc2ccc(Cl)cc2[C@](C#CC2CC2)(C(F)(F)F)O1`, the IC50 was > 20 µM. In addition, under “read-out: pIC50 (converted)”, the IC50 was > 20 µM.
For `Cc1cccc(C)c1NC(=O)C1(N(C)C)CCN([C@H]2CCCC[C@@H]2O)CC1`, the IC50 is > 20 µM. Where the note is “read-out: pIC50 (converted)”, the IC50 was > 20 µM.
Consider `CCOC(=O)Nc1ccc(SC[C@H]2CO[C@](Cn3ccnc3)(c3ccc(Cl)cc3Cl)O2)cc1`, for which the IC50 was > 20 µM. For the same compound, the IC50 (read-out: pIC50 (converted)) is > 20 µM.
Take `COC(=O)N[C@H](C(=O)N1CC2(CC2)C[C@H]1c1nc(-c2ccc3c(c2)C(F)(F)c2cc(-c4ccc5[nH]c([C@@H]6[C@H]7CC[C@H](C7)N6C(=O)[C@@H](NC(=O)OC)C(C)C)nc5c4)ccc2-3)c[nH]1)C(C)C`: the IC50 was > 20 µM. Moreover, for the setting “read-out: pIC50 (converted)”, the IC50 is > 20 µM.
`O=C(NCCN1CCN(c2cccc3c2OC[C@@H](CO)O3)CC1)c1ccc(F)cc1`: the IC50 is > 20 µM. The IC50 (read-out: pIC50 (converted)) is > 20 µM.
As for `O=C(NC[C@H](O)CN1CCc2ccccc2C1)c1cc(NC2COC2)ncn1`, the IC50 was > 20 µM. In addition, under “read-out: pIC50 (converted)”, the IC50 is > 20 µM.
As to `CCOC(=O)C1=C(CN2CCOCC2)NC(c2nccs2)=N[C@H]1c1ccc(F)cc1Br`, the IC50 was > 20 µM. Under “read-out: pIC50 (converted)”, the IC50 is > 20 µM.
For the compound `CC(C)OC(=O)[C@H](C)N[P@@](=O)(OC[C@@]1(F)O[C@@H](n2ccc(=O)[nH]c2=O)[C@](C)(O)[C@@H]1O)Oc1ccccc1`, the IC50 was > 20 µM. For the setting “read-out: pIC50 (converted)”, the IC50 was > 20 µM.
`COc1ccc2c(c1)[C@H]1C[C@@]1(C(=O)N1C3CCC1CN(C)C3)Cn1c-2c(C2CCCCC2)c2ccc(C(=O)NS(=O)(=O)N(C)C)cc21`: the IC50 was > 20 µM. Moreover, the IC50 (read-out: pIC50 (converted)) is > 20 µM.
Take `NC(=O)CNC1Cc2ccccc2C1`: the IC50 is > 20 µM. Besides, where the note is “read-out: pIC50 (converted)”, the IC50 was > 20 µM.
Regarding `[2H]C([2H])(CCCCCCCC)C([2H])([2H])CCCCCC(=O)OC1CCCn2c1nc(C)c(CCN1CCC(c3noc4cc(F)ccc34)CC1)c2=O` (stereo not given), the IC50 is > 20 µM. Moreover, for the setting “read-out: pIC50 (converted)”, the IC50 was > 20 µM.
Take `O=C1N[C@@H](C(=O)O)CS1`: the IC50 is > 20 µM. For the setting “read-out: pIC50 (converted)”, the IC50 is > 20 µM.
Turning to `C/C(=C(\OCCOc1ccc(Cl)cc1)c1ccc(Cl)cc1Cl)n1ccnc1`, the IC50 was > 20 µM. Besides, where the note is “read-out: pIC50 (converted)”, the IC50 is > 20 µM.
Take `[2H]C1([2H])[C@H]2C[C@@H]([C@@H]1Oc1ccc(C(F)(F)F)cn1)N(C(=O)c1cccc(F)c1-c1ncccn1)C2([2H])[2H]`: the IC50 was > 20 µM. In addition, for the setting “read-out: pIC50 (converted)”, the IC50 is > 20 µM.
As for `CC12CCC(C(C(=O)O)C1=O)C2(C)C` (stereo not given), the IC50 was > 20 µM. Moreover, the IC50 (read-out: pIC50 (converted)) was > 20 µM.
In the case of `C[N+]12CCC34c5ccccc5N5C(=O)CC6OCC=C(C1)C(CC32)C6C54` (stereo not given), the IC50 was > 20 µM. In addition, the IC50 (read-out: pIC50 (converted)) was > 20 µM.
Turning to `CC(C)=CCCC(C)C1CCC2(C)C3=C(CCC12C)C1(C)CCC(O)C(C)(C)C1CC3` (stereo not given), the IC50 is > 20 µM. For the same compound, the IC50 (read-out: pIC50 (converted)) is > 20 µM.
In the case of `C=C1CC[C@H]2[C@@H](/C=C(/C)C(=O)[C@@]3(OC(C)=O)C[C@H](C)[C@H](OC(=O)c4ccccc4)[C@@H]3[C@H]1OC(C)=O)C2(C)C`, the IC50 was > 20 µM. For the same compound, the IC50 (read-out: pIC50 (converted)) was > 20 µM.
`CC(CCC(=O)O)C1CCC2C3CC[C@@H]4C[C@H](O)CC[C@]4(C)C3C[C@H](O)[C@]12C` (stereo not given in full): the IC50 is > 20 µM. The IC50 (read-out: pIC50 (converted)) is > 20 µM.
On to `[2H]C1([2H])COc2ccc(Cc3cc([C@@H]4O[C@H](CO)[C@@H](O)[C@H](O)[C@H]4O)ccc3CC)cc2O1`, for which the IC50 is > 20 µM. For the same compound, the IC50 (read-out: pIC50 (converted)) is > 20 µM.
In the case of `CC(=O)OC[C@@]1(O)C[C@@]23CC[C@@H]4c5ccoc5CC[C@@]4(C)[C@@H]2CC[C@H]1C3`, the IC50 was > 20 µM. Further, for the setting “read-out: pIC50 (converted)”, the IC50 is > 20 µM.
For the compound `CN[C@H]1CCN(c2cc(NCC3CC3)nc(N)n2)C1`, the IC50 was > 20 µM. Moreover, the IC50 (read-out: pIC50 (converted)) was > 20 µM.
For `CC(C(=O)O)c1ccc2oc(-c3ccc(F)cc3)nc2c1` (stereo not given), the IC50 was > 20 µM. In addition, the IC50 (read-out: pIC50 (converted)) is > 20 µM.
With `CC(C)CC(NC(=O)C(Cc1ccccc1)NC(=O)CNC(=O)[C@H](C)NC(=O)C(N)Cc1ccc(O)cc1)C(=O)N[C@H](CCCNC(=N)N)C(=O)O` (stereo not given in full), the IC50 was > 20 µM. Also, the IC50 (read-out: pIC50 (converted)) is > 20 µM.
`O=C(O)CCCC[C@H]1SC[C@H]2NC(=O)N[C@H]21`: the IC50 is > 20 µM. Further, the IC50 (read-out: pIC50 (converted)) is > 20 µM.
`Cc1noc(-c2ccc(-c3ccc(C4(C(=O)O)CC4)cc3)cc2)c1NC(=O)O[C@@H](C)c1ccccc1`: the IC50 is > 20 µM. In addition, the IC50 (read-out: pIC50 (converted)) is > 20 µM.
Turning to `CN(C)c1ccc(-c2ccc3cc(OC[C@@H](O)CF)ccc3n2)cc1`, the IC50 was > 20 µM. Besides, where the note is “read-out: pIC50 (converted)”, the IC50 was > 20 µM.
On to `CC1O[C@@H](OC2C(O)[C@H](OCCc3ccc(O)c(O)c3)OC(CO)[C@H]2OC(=O)/C=C/c2ccc(O)c(O)c2)C(O)C(O)[C@H]1O` (stereo not given in full), for which the IC50 was > 20 µM. For the same compound, the IC50 (read-out: pIC50 (converted)) is > 20 µM.
As to `CC[C@H](C)[C@H]1O[C@]2(C=C[C@@H]1C)C[C@@H]1C[C@@H](C/C=C(/C)[C@@H](O[C@H]3C[C@H](OC)[C@@H](O[C@H]4C[C@H](OC)[C@@H](O)[C@H](C)O4)[C@H](C)O3)[C@@H](C)/C=C\C=C3\CO[C@@H]4[C@H](O)C(C)=C[C@@H](C(=O)O1)[C@]34O)O2`, the IC50 was > 20 µM. Moreover, for the setting “read-out: pIC50 (converted)”, the IC50 is > 20 µM.
For `CCN(Cc1ccccc1)C(=O)Cn1c(=O)n(C)c2cnc(-c3ccccc3)nc21`, the IC50 is > 20 µM. For the same compound, the IC50 (read-out: pIC50 (converted)) was > 20 µM.
With `CC1=NC(=O)[C@](CCN(C(C)C)C(C)C)(c2ccccc2)[C@H]2CCCCN12`, the IC50 was > 20 µM. Where the note is “read-out: pIC50 (converted)”, the IC50 was > 20 µM.
Consider `NS(=O)(=O)c1ccc(N2CCN(CC[C@H]3OCCc4ccccc43)CC2)cc1`, for which the IC50 is > 20 µM. Also, the IC50 (read-out: pIC50 (converted)) was > 20 µM.
On to `C=CC1=C(C(=O)O)N2C(=O)[C@@H](NC(=O)/C(=N\O)c3csc(N)n3)[C@H]2SC1`, for which the IC50 is > 20 µM. Further, under “read-out: pIC50 (converted)”, the IC50 is > 20 µM.
